# In patent US20110274661A1, “Attentuated Herpesvirus Encoding a Mek Pathway Polypeptide” (The University of Chicago, priority 2008, published 2011):
# How the values were obtained:
# [1] = system: HT1080 cells infected with R3616; test: Immunoblot of viral proteins and phosphorylated PKR in R3616-infected HT1080 cells treated with PD98059; format: cell-based, human
# Procedure: Immunoblotting—Experiments to analyze the accumulation of viral proteins and phosphorylation of ERK, PKR and eIF-2α were performed on whole-cell lysates harvested on ice at either 12 or 14 hours post-infection with lysis buffer, sonicated for 10 seconds, and clarified by centrifugation. Total protein from the supernatant was quantified by the Bradford method and 20 μg of equilibrated protein was subjected to electrophoresis in 12% or 7.5% (vol/vol) denaturing polyacrylamide gels, transferred to PVDF membranes (Millipore Corporation), blocked, and reacted with primary antibody followed by appropriate secondary antibody.
# (§1) Inhibitor studies—For experiments employing the known MEK inhibitor, PD98059, HT1080 cells were starved over night in serum-free medium and then exposed to 40 μM of PD98059 (EMD Biosciences, San Diego, Calif.), or DMSO (1:1000 dilution) 6 hours prior to, and during, infection. At 12 hours post-infection, whole cell lysates were created as described above for immunoblotting.
# To determine if MEK mediates the observed mutant Ras-dependent suppression of PKR activation and resultant accumulation of viral proteins in HT1080 cells infected with mutant virus R3616, the relative expressions of representative α (ICP27), β (UL42) and γ2(glycoprotein C) viral proteins in cells treated with a specific chemical inhibitor of MEK-1 (PD98059) were compared. Replicate cultures of HT1080 cells were serum-starved overnight prior to exposure to equal volumes of DMSO or PD98059 (40 μM) for 6 hours prior to infection with R3616 mutant virus (10 PFU/cell). DMSO or drug treatment was then continued until the cells were harvested at 12 hours post-infection. The cells were then lysed and the lysates were subjected to electrophoresis in denaturing polyacrylamide gels, followed by transferring to PVDF membranes and reacting with antibody to ICP27, UL42, or gC. […] To test whether the decrease in the accumulation of gC correlated with activation of PKR, the electrophoretically separated lysates were also probed with antibody to the auto-phosphorylated form of PKR (P-Thr446).
# HT1080 cells = test: R3616 viral yield in HT1080 cells with MEK inhibitor PD98059 or DMSO; format: cell-based, human; conditions: R3616 1 PFU/cell
# Procedure: as §1
# Finally, to determine if MEK inhibition affects viral replication, DMSO or PD98059 (40 μM) was added to replicate cultures of HT1080 cells 6 hours prior to, and during, infection with R3616 (1 PFU/cell). The cells were harvested at 36 hours post-infection and viral yields were measured by plaque assays on Vero cell monolayers.
# [2] = PD98059 40 μM, R3616 10 PFU/cell, 12 hours post-infection
smiles,measurement,setting,value
COc1cccc(-c2cc(=O)c3ccccc3o2)c1N [PD98059],amount of activated PKR (P-Thr446),[1]; PD98059 40 μM prior to and during infection with R3616,increased the amount of activated PKR
same,accumulation of ICP27 and UL42 proteins,[1]; [2],slight effect
same,amounts of gC that accumulated,[1]; [2],very dramatic decrease
same,yield of R3616 mutant virus in the presence of PD98059,"HT1080 cells; PD98059 40 μM 6 hours prior to and during infection, 36 hours post-infection",1.67×10^5 PFU/ml
same,fold lower yield of R3616 with PD98059 than with DMSO,"HT1080 cells; PD98059 40 μM, 36 hours",approximately 15 fold
